Earlier results in patent publication US11602507B2, “Extended release oral composition of memantine or its salt and its process for the preparation” (TRIKONA PHARMACEUTICALS PVT. LTD, priority 2019, dated 2023).

- solubility in water: highly soluble in water
Compound: CC12CC3CC(C)(C1)CC(N)(C3)C2 [Memantine, 1-amino-3,5-dimethyladamantane]
